# Results published in ChEMBL document CHEMBL1201861, “Genomics of Drug Sensitity in Cancer screening data, Wellcome Trust Sanger Institute”.
# Legend:
# SNU-16 = test: cells; type: functional, cell-based; conditions: Homo sapiens;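 also: growth inhibition of human SNU-16 cells, determined with a cell viability readout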
# Description: SANGER: Inhibition of human NCI-SNU-16 cell growth in a cell viability assay.
# A253 cell line = test: cells; type: functional, cell-based; conditions: Homo sapiens;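 also: growth inhibition of A253 cells, read out with a cell viability assay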
# Description: SANGER: Inhibition of human A253 cell growth in a cell viability assay.
# SUP-T1 = test: cells; type: functional, cell-based; conditions: Homo sapiens;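 also: growth inhibition of human SUP-T1 cells, read out as cell viability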
# Description: SANGER: Inhibition of human SUP-T1 cell growth in a cell viability assay.
# NB1 = test: cells; type: functional, cell-based; conditions: Homo sapiens;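 also: reduction of NB1 cell proliferation, read out with a viability assay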
# Description: SANGER: Inhibition of human NB1 cell growth in a cell viability assay.
# IMR-5 = test: cells; type: functional, cell-based; conditions: Homo sapiens;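 also: growth inhibition of human IMR-5 cells, read out with a cell viability assay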
# Description: SANGER: Inhibition of human IMR-5 cell growth in a cell viability assay.
# NCI-H524 = test: cells; type: functional, cell-based; conditions: Homo sapiens;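 also: growth inhibition of human NCI-H524 cells, read out through a cell viability assay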
# Description: SANGER: Inhibition of human NCI-H524 cell growth in a cell viability assay.
# CA46 = test: cells; type: functional, cell-based; conditions: Homo sapiens;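 also: growth inhibition of human CA46 cells, read out by a cell viability assay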
# Description: SANGER: Inhibition of human CA46 cell growth in a cell viability assay.
# ST486 = test: SANGER: Inhibition of human ST486 cell growth in a cell viability assay.; type: functional, cell-based
# NCI-H2081 = test: cells; type: functional, cell-based; conditions: Homo sapiens;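 also: growth inhibition of human NCI-H2081 cells, read out with a cell viability assay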
# Description: SANGER: Inhibition of human NCI-H2081 cell growth in a cell viability assay.
# MHH-CALL-2 = test: cells; type: functional, cell-based; conditions: Homo sapiens;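 also: growth inhibition of the cell line, read out in a cell viability assay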
# Description: SANGER: Inhibition of human MHH-CALL-2 cell growth in a cell viability assay.
# TE-441-T = test: cells; type: functional, cell-based; conditions: Homo sapiens
# Description: SANGER: Inhibition of human TE-441-T cell growth in a cell viability assay.
# CHP-126 = test: cells; type: functional, cell-based; conditions: Homo sapiens
# Description: SANGER: Inhibition of human CHP-126 cell growth in a cell viability assay.
# NCI-H716 = test: cells; type: functional, cell-based; conditions: Homo sapiens;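 also: growth inhibition of human NCI-H716 cells, measured by a cell viability assay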
# Description: SANGER: Inhibition of human NCI-H716 cell growth in a cell viability assay.
# NCI-H2196 = test: cells; type: functional, cell-based; conditions: Homo sapiens;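 also: cell viability assay used as the readout of growth inhibition in NCI-H2196 cells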
# Description: SANGER: Inhibition of human NCI-H2196 cell growth in a cell viability assay.
# COR-L279 = test: SANGER: Inhibition of human COR-L279 cell growth in a cell viability assay.; type: functional, cell-based
# CESS = test: SANGER: Inhibition of human CESS cell growth in a cell viability assay.; type: functional, cell-based
# BC1 cell line = test: SANGER: Inhibition of human BC-1 cell growth in a cell viability assay.; type: functional, cell-based
# RPMI 8402 = test: SANGER: Inhibition of human RPMI-8402 cell growth in a cell viability assay.; type: functional, cell-based
# CAL-148 = test: cells; type: functional, cell-based; conditions: Homo sapiens
# Description: SANGER: Inhibition of human CAL-148 cell growth in a cell viability assay.
# NCI-H2342 = test: cells; type: functional, cell-based; conditions: Homo sapiens;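 also: growth inhibition of the cancer cell line, determined with a cell viability assay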
# Description: SANGER: Inhibition of human NCI-H2342 cell growth in a cell viability assay.
# RT-112 = test: cells; type: functional, cell-based; conditions: Homo sapiens
# Description: SANGER: Inhibition of human RT-112 cell growth in a cell viability assay.
# GMS-10 = test: cells; type: functional, cell-based; conditions: Homo sapiens;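 also: growth inhibition of GMS-10 cells, read out as cell viability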
# Description: SANGER: Inhibition of human GMS-10 cell growth in a cell viability assay.
# NCI-H2052 = test: cells; type: functional, cell-based; conditions: Homo sapiens;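 also: growth inhibition of NCI-H2052 cells, read out with a cell viability assay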
# Description: SANGER: Inhibition of human NCI-H2052 cell growth in a cell viability assay.
# GCT = test: cells; type: functional, cell-based; conditions: Homo sapiens;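 also: GCT cell line proliferation inhibition, read out with a cell viability assay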
# Description: SANGER: Inhibition of human GCT cell growth in a cell viability assay.
# ME-180 = test: cells; type: functional, cell-based; conditions: Homo sapiens;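 also: cell viability assay measuring growth inhibition of ME-180 cells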
# Description: SANGER: Inhibition of human ME-180 cell growth in a cell viability assay.
# SW780 = test: cells; type: functional, cell-based; conditions: Homo sapiens;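 also: growth inhibition of the cells, read out with a cell viability assay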
# Description: SANGER: Inhibition of human SW780 cell growth in a cell viability assay.
# SW756 = test: cells; type: functional, cell-based; conditions: Homo sapiens;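 also: growth inhibition of human SW756 cells, read out with a cell viability assay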
# Description: SANGER: Inhibition of human SW756 cell growth in a cell viability assay.
# SW626 = test: cells; type: functional, cell-based; conditions: Homo sapiens;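 also: growth inhibition of SW626 cells, measured with a cell viability assay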
# Description: SANGER: Inhibition of human SW626 cell growth in a cell viability assay.
# SK-MEL3 = test: cells; type: functional, cell-based, SK-MEL-3; conditions: Homo sapiens;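 also: growth inhibition of human SK-MEL-3 cells, read out with a cell viability assay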
# Description: SANGER: Inhibition of human SK-MEL-3 cell growth in a cell viability assay.
# SW1088 = test: cells; type: functional, cell-based; conditions: Homo sapiens;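 also: growth inhibition of human SW1088 cells, read out by a cell viability assay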
# Description: SANGER: Inhibition of human SW1088 cell growth in a cell viability assay.
# 8505C = test: cells; type: functional, cell-based; conditions: Homo sapiens
# Description: SANGER: Inhibition of human 8505C cell growth in a cell viability assay.
# MKN-1 = test: cells; type: functional, cell-based; conditions: Homo sapiens;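 also: growth inhibition of human MKN1 cells, read out by a cell viability measurement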
# Description: SANGER: Inhibition of human MKN1 cell growth in a cell viability assay.
# ChaGo-K-1 = test: cells; type: functional, cell-based; conditions: Homo sapiens;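 also: growth inhibition of ChaGo-K-1 cells, read out with a cell viability assay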
# Description: SANGER: Inhibition of human ChaGo-K-1 cell growth in a cell viability assay.
# RO82-W-1 = test: cells; type: functional, cell-based; conditions: Homo sapiens;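 also: growth inhibition of human RO82-W-1 cells, measured with a cell viability assay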
# Description: SANGER: Inhibition of human RO82-W-1 cell growth in a cell viability assay.
# DU-145 = test: cells; type: functional, cell-based; conditions: Homo sapiens
# Description: SANGER: Inhibition of human DU-145 cell growth in a cell viability assay.
# HCC1419 = test: cells; type: functional, cell-based; conditions: Homo sapiens;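 also: growth inhibition of human HCC1419 cells, read out as cell viability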
# Description: SANGER: Inhibition of human HCC1419 cell growth in a cell viability assay.
# UMUC3 = test: cells; type: functional, cell-based; conditions: Homo sapiens;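 also: growth inhibition of human UM-UC-3 cells, read out with a cell viability assay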
# Description: SANGER: Inhibition of human UM-UC-3 cell growth in a cell viability assay.
# MDA-MB-361 = test: cells; type: functional, cell-based; conditions: Homo sapiens
# UACC-62 = test: cells; type: functional, cell-based; conditions: Homo sapiens;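 also: growth inhibition of human UACC-62 cells, read out by a cell viability assay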
# Description: SANGER: Inhibition of human UACC-62 cell growth in a cell viability assay.
# SW48 = test: cells; type: functional, cell-based; conditions: Homo sapiens;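 also: growth inhibition of SW48 cells, read out with a cell viability assay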
# Description: SANGER: Inhibition of human SW48 cell growth in a cell viability assay.
# HCT-116 = test: cells; type: functional, cell-based; conditions: Homo sapiens
# Description: SANGER: Inhibition of human HCT-116 cell growth in a cell viability assay.
# YKG-1 = test: cells; type: functional, cell-based; conditions: Homo sapiens;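 also: cell growth inhibition, read out with a viability assay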
# Description: SANGER: Inhibition of human YKG-1 cell growth in a cell viability assay.
# KYSE-410 = test: cells; type: functional, cell-based; conditions: Homo sapiens;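 also: growth inhibition of KYSE-410 cells, measured through a cell viability readout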
# Description: SANGER: Inhibition of human KYSE-410 cell growth in a cell viability assay.
# EFM-19 = test: cells; type: functional, cell-based; conditions: Homo sapiens;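 also: growth inhibition of human EFM-19 cells, measured in a cell viability assay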
# Description: SANGER: Inhibition of human EFM-19 cell growth in a cell viability assay.
# NCI-H28 = test: cells; type: functional, cell-based; conditions: Homo sapiens;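 also: growth inhibition of human NCI-H28 cells, read out as cell viability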
# Description: SANGER: Inhibition of human NCI-H28 cell growth in a cell viability assay.
# SW837 = test: cells; type: functional, cell-based; conditions: Homo sapiens;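 also: growth inhibition of SW837 cells, determined with a cell viability assay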
# Description: SANGER: Inhibition of human SW837 cell growth in a cell viability assay.
# BPH-1 = test: cells; type: functional, cell-based; conditions: Homo sapiens;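 also: cell viability assay measuring growth inhibition of human BPH-1 cells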
# Description: SANGER: Inhibition of human BPH-1 cell growth in a cell viability assay.
# NCI-H810 = test: cells; type: functional, cell-based; conditions: Homo sapiens;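 also: IC50 reflects inhibition of cancer cell line growth, read out with a cell viability assay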
# Description: SANGER: Inhibition of human NCI-H810 cell growth in a cell viability assay.
# PANC-08-13 = test: cells; type: functional, cell-based; conditions: Homo sapiens
# Description: SANGER: Inhibition of human PANC-08-13 cell growth in a cell viability assay.
# HT-3 = test: cells; type: functional, cell-based; conditions: Homo sapiens;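 also: growth inhibition measured with a cell viability readout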
# Description: SANGER: Inhibition of human HT-3 cell growth in a cell viability assay.
# HOP-92 = test: cells; type: functional, cell-based; conditions: Homo sapiens;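 also: cell viability readout, with IC50 reflecting inhibition of HOP-92 cell growth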
# Description: SANGER: Inhibition of human HOP-92 cell growth in a cell viability assay.
# H4 = test: cells; type: functional, cell-based; conditions: Homo sapiens
# Description: SANGER: Inhibition of human H4 cell growth in a cell viability assay.
# U2OS = test: cells; type: functional, cell-based, U-2-OS; conditions: Homo sapiens;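 also: growth inhibition of human U-2-OS cells, determined with a cell viability assay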
# Description: SANGER: Inhibition of human U-2-OS cell growth in a cell viability assay.
# HuO-3N1 = test: cells; type: functional, cell-based; conditions: Homo sapiens;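 also: cell viability readout used to measure how strongly compounds suppress proliferation of human HuO-3N1 cells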
# Description: SANGER: Inhibition of human HuO-3N1 cell growth in a cell viability assay.
# COR-L23 = test: cells; type: functional, cell-based; conditions: Homo sapiens;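 also: cell viability assay measuring how strongly compounds suppress growth of COR-L23 cells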
# Description: SANGER: Inhibition of human COR-L23 cell growth in a cell viability assay.
# SF-295 = test: cells; type: functional, cell-based; conditions: Homo sapiens;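 also: growth inhibition of SF-295 cells, read out with a cell viability assay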
# Description: SANGER: Inhibition of human SF295 cell growth in a cell viability assay.
# SCC-9 = test: cells; type: functional, cell-based; conditions: Homo sapiens;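 also: Read-out is a cell viability assay, with values giving inhibition of cell growth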
# Description: SANGER: Inhibition of human SCC-9 cell growth in a cell viability assay.
# CAL-27 = test: cells; type: functional, cell-based; conditions: Homo sapiens;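 also: Viability-based readout, IC50 reflecting inhibition of CAL-27 cell growth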
# Description: SANGER: Inhibition of human CAL-27 cell growth in a cell viability assay.
# MEL-HO = test: cells; type: functional, cell-based; conditions: Homo sapiens
# Description: SANGER: Inhibition of human MEL-HO cell growth in a cell viability assay.
# G-401 = test: cells; type: functional, cell-based; conditions: Homo sapiens
# Description: SANGER: Inhibition of human G-401 cell growth in a cell viability assay.
# NCI-H292 = test: cells; type: functional, cell-based; conditions: Homo sapiens;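 also: growth inhibition of NCI-H292 cells, read out with a cell viability assay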
# Description: SANGER: Inhibition of human NCI-H292 cell growth in a cell viability assay.
# SK-MEL-28 = test: cells; type: functional, cell-based; conditions: Homo sapiens;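 also: growth inhibition of human SK-MEL-28 cells, read out with a cell viability assay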
# Description: SANGER: Inhibition of human SK-MEL-28 cell growth in a cell viability assay.
# HCT-15 = test: cells; type: functional, cell-based; conditions: Homo sapiens;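 also: cell viability readout, IC50 reflecting suppression of HCT-15 cell growth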
# Description: SANGER: Inhibition of human HCT-15 cell growth in a cell viability assay.
# EFO-27 = test: cells; type: functional, cell-based; conditions: Homo sapiens;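 also: growth inhibition of EFO-27 cells, read out with a cell viability assay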
# Description: SANGER: Inhibition of human EFO-27 cell growth in a cell viability assay.
structure (smiles),measurement,setting,value
CCNc1cc(N[C@H]2CC[C@@H](O)CC2)nc(Nc2ccc3c(ccn3Cc3ccccc3)c2)n1,IC50,SNU-16,> 5.12 µM
same,IC50,A253 cell line,> 5.12 µM
same,IC50,SUP-T1,> 5.12 µM
same,IC50,NB1,> 5.12 µM
same,IC50,IMR-5,> 5.12 µM
same,IC50,NCI-H524,> 5.12 µM
same,IC50,CA46,> 5.12 µM
same,IC50,ST486,> 5.12 µM
same,IC50,NCI-H2081,> 5.12 µM
same,IC50,MHH-CALL-2,> 5.12 µM
same,IC50,TE-441-T,> 5.12 µM
same,IC50,CHP-126,> 5.12 µM
same,IC50,NCI-H716,> 5.12 µM
same,IC50,NCI-H2196,> 5.12 µM
same,IC50,COR-L279,> 5.12 µM
same,IC50,CESS,> 5.12 µM
same,IC50,BC1 cell line,> 5.12 µM
same,IC50,RPMI 8402,3.48 µM
same,IC50,CAL-148,> 5.12 µM
N#C/C(=C1/Nc2ccccc2S1)c1ccnc(NCCc2cccnc2)n1,IC50,NCI-H2342,4.52 µM
same,IC50,SNU-16,> 8 µM
same,IC50,A253 cell line,> 8 µM
same,IC50,SUP-T1,> 8 µM
same,IC50,RT-112,> 8 µM
same,IC50,GMS-10,> 8 µM
same,IC50,NCI-H2052,> 8 µM
same,IC50,GCT,3.6 µM
same,IC50,ME-180,> 8 µM
same,IC50,SW780,> 8 µM
same,IC50,SW756,> 8 µM
same,IC50,SW626,5.87 µM
same,IC50,NB1,> 8 µM
same,IC50,IMR-5,> 8 µM
same,IC50,NCI-H524,> 8 µM
same,IC50,SK-MEL3,> 8 µM
same,IC50,SW1088,> 8 µM
same,IC50,8505C,2.9 µM
same,IC50,MKN-1,2.9 µM
same,IC50,ChaGo-K-1,4.59 µM
same,IC50,RO82-W-1,> 8 µM
same,IC50,DU-145,> 8 µM
same,IC50,HCC1419,> 8 µM
same,IC50,UMUC3,> 8 µM
same,IC50,CA46,5.45 µM
same,IC50,MDA-MB-361,6.49 µM
same,IC50,UACC-62,> 8 µM
same,IC50,SW48,2.16 µM
same,IC50,HCT-116,> 8 µM
same,IC50,ST486,1.74 µM
same,IC50,YKG-1,3.77 µM
same,IC50,KYSE-410,> 8 µM
same,IC50,EFM-19,5.39 µM
same,IC50,NCI-H28,3.29 µM
same,IC50,NCI-H2081,> 8 µM
same,IC50,MHH-CALL-2,> 8 µM
same,IC50,SW837,5.24 µM
same,IC50,BPH-1,> 8 µM
same,IC50,NCI-H810,5.34 µM
same,IC50,PANC-08-13,3.63 µM
same,IC50,HT-3,> 8 µM
same,IC50,HOP-92,> 8 µM
same,IC50,TE-441-T,> 8 µM
same,IC50,CHP-126,> 8 µM
same,IC50,NCI-H716,> 8 µM
same,IC50,H4,> 8 µM
same,IC50,NCI-H2196,> 8 µM
same,IC50,U2OS,> 8 µM
same,IC50,COR-L279,> 8 µM
same,IC50,CESS,> 8 µM
same,IC50,HuO-3N1,0.815 µM
same,IC50,COR-L23,> 8 µM
same,IC50,SF-295,3.04 µM
same,IC50,SCC-9,> 8 µM
same,IC50,CAL-27,> 8 µM
same,IC50,MEL-HO,5.46 µM
same,IC50,G-401,2.82 µM
same,IC50,NCI-H292,> 8 µM
same,IC50,SK-MEL-28,> 8 µM
same,IC50,BC1 cell line,5.38 µM
same,IC50,HCT-15,> 8 µM
same,IC50,EFO-27,> 8 µM
same,IC50,RPMI 8402,> 8 µM
same,IC50,CAL-148,> 8 µM
COc1cc(C)c(Sc2cnc(NC(=O)c3ccc(CNC(C)C(C)(C)C)cc3)s2)cc1C(=O)N1CCN(C(C)=O)CC1 (stereo unspecified),IC50,SNU-16,> 10.2 µM
same,IC50,A253 cell line,> 10.2 µM
same,IC50,SUP-T1,7.48 µM
same,IC50,NB1,> 10.2 µM
same,IC50,IMR-5,> 10.2 µM
same,IC50,NCI-H524,> 10.2 µM
same,IC50,CA46,> 10.2 µM
same,IC50,ST486,> 10.2 µM
same,IC50,NCI-H2081,> 10.2 µM
same,IC50,MHH-CALL-2,> 10.2 µM
same,IC50,TE-441-T,> 10.2 µM
same,IC50,CHP-126,> 10.2 µM
same,IC50,NCI-H716,> 10.2 µM
same,IC50,NCI-H2196,> 10.2 µM
same,IC50,COR-L279,> 10.2 µM
same,IC50,CESS,> 10.2 µM
same,IC50,BC1 cell line,9.11 µM
same,IC50,RPMI 8402,> 10.2 µM
same,IC50,CAL-148,> 10.2 µM
Cc1ccc(NC(=O)c2cccc(C(C)(C)C#N)c2)cc1Nc1ccc2ncn(C)c(=O)c2c1,IC50,SNU-16,> 4 µM
same,IC50,A253 cell line,> 4 µM
same,IC50,SUP-T1,1.74 µM
same,IC50,NB1,> 4 µM
same,IC50,IMR-5,> 4 µM
same,IC50,NCI-H524,> 4 µM
same,IC50,CA46,> 4 µM
same,IC50,ST486,1.39 µM
same,IC50,NCI-H2081,> 4 µM
same,IC50,MHH-CALL-2,> 4 µM
same,IC50,TE-441-T,2.81 µM
same,IC50,CHP-126,> 4 µM
same,IC50,NCI-H716,> 4 µM
same,IC50,NCI-H2196,> 4 µM
same,IC50,COR-L279,> 4 µM
same,IC50,CESS,> 4 µM
same,IC50,BC1 cell line,> 4 µM
same,IC50,RPMI 8402,> 4 µM
same,IC50,CAL-148,> 4 µM
